# Test results reported in a melting point compilation (Tetko et al.; mined from patent text by program, amines drawn as free bases though some values may be those of a salt).
row,SMILES,melting point
1,Cc1cc(N2CCC3(CC2)OCCO3)c2cc(C)c(-c3ccc(Cl)cc3Cl)n2n1,193 to 196 °C
2,CCC(=O)N(C)c1cccc(-c2ccnc3c(C(=O)c4ccccc4)cnn23)c1,154 to 156 °C
3,O=C(O)CCCCCCCn1cnc(-c2ccc(O)cc2)c1-c1ccc(O)cc1,203 to 204 °C
4,CCCn1c(=O)c2c(nc(/C=C/c3cc(OC(C)=O)cc(OC(C)=O)c3)n2C)n(CCC)c1=O,224 to 225 °C
5,COC(=O)N(C)CCCCC(=O)OC[C@@H]1CC(c2ccc(-c3ccc(N4C[C@H](Cn5ccnn5)OC4=O)cc3F)cn2)=NO1,82 °C
6,O=C1c2ccc(OCCn3ccnc3)cc2CCC1Cc1ccc(Br)cc1 (centres undefined),129 to 130 °C
7,Cc1ccc(C(O)(c2ccc3c(c2)c(-c2cccc(Cl)c2)nc2nnnn23)c2cncn2C)cc1 (centres undefined),165 °C
8,S=c1nc(-c2cc(Cl)cc(Cl)c2)[nH]n1Cc1ccccc1,205 to 212 °C
9,CCC(CC)(CC(=O)Nc1cccc(OCc2ccc3cc(C)ccc3n2)c1)C(=O)O,175 °C
10,CO[C@H]1CC[C@H](C(=O)N2CCC(c3[nH]nc4c3C(=O)c3c(NC(=O)NN5CCOCC5)cccc3-4)CC2)CC1,178 to 180 °C
11,COc1cc2c(cc1OC)CN(CC(=O)Nc1ccc(N)cc1)CC2,185 °C
12,Brc1ccc(C2(c3ccc(Br)cc3)OCCO2)cc1,103 to 104 °C
13,NNc1ccnc2c(NC(=O)c3c(Cl)cccc3Cl)cc(C(F)(F)F)cc12,228 to 232 °C
14,Nc1ccc2c(OCc3nc4ccccc4s3)cccc2c1,141 to 143 °C
15,CN1CCC2(C)c3cc(C(=O)C(=O)OCc4ccccc4)ccc3N(C)C12 (centres undefined),53 to 57 °C
16,c1ccc(CC[C@H]2CNCCN2)nc1,83 to 87 °C
17,COC(=O)c1cc(-c2ccccc2)c(=O)n2c1-c1sccc1S(=O)C2 (centres undefined),183 to 186 °C
18,Cc1cc2c(cc1C)N(C)Cc1cscc1N2,121 to 125 °C
19,COc1cccc(CNc2nccc(-c3cc(N4CCN(CCCN5CCCC5)CC4)c4cc(OC)ccc4c3)n2)c1,160 to 167 °C
20,c1ccc(-c2nc3cnccc3[nH]2)cc1,225 to 226 °C
21,CN(C(N)=O)c1ccccc1S,73 to 75 °C
22,CC(C)c1nc2ccccc2c(-c2ccc(F)cc2)c1/C=C/I,129 to 131 °C
23,CCCS(=O)(=O)c1ccc(NS(=O)(=O)c2cccs2)c2[nH]c(C3=NCCS3)cc12,101 to 102 °C
24,NC(=O)/C=C/c1ccc(C(c2cc(F)ccc2F)S(=O)(=O)c2ccc(Cl)cc2)nc1 (centres undefined),219 to 220 °C
25,COc1cc(C2C3=C(COC3=O)N(C)c3cc4c(cc32)OCO4)cc(OC)c1OC (centres undefined),226 °C

row,SMILES,melting point
1,CC(C)(C)OC(=O)N1C2CCC1CN(CCCNc1ccc(C#N)cc1)C2,124 to 127 °C
2,CSC(Oc1cc(I)c2ncc(Br)cc2c1)C(=O)NC(C)(C)C (centres undefined),171 to 172 °C
3,CC(c1cccc(NC(=O)NC2N=C(c3ccccc3F)c3ccccc3N(CC(=O)N3CC4CCC(CC4)C3)C2=O)c1)S(=O)(=O)O (racemic),> 250 °C
4,CCOC(=O)c1ccc(/C=C/c2c(C)cc3c(c2OC)C(C)(C)CCC3(C)C)cc1,123 °C
5,C=CCC1C(=O)c2cc(OC)ccc2C2CCC3(C)C(O)CCC3C12 (centres undefined),122 to 123 °C
6,COc1cc2cc(COC(C)=O)c(C(=O)OC3OC(CO)C(O)C(O)C3O)c(-c3ccc4c(c3)OCO4)c2cc1OC (centres undefined),127 to 130 °C
7,CC1(C)CC(=NO)c2cc(Br)ccc21,115 to 117 °C
8,Nn1nc(-c2ccc(Cl)cc2)cc1OCCN1CCCC1,131 °C
9,CCc1nc(-c2ccc(OCCCn3cnc4ccccc43)cc2)no1,100 to 101 °C
10,O=C1Nc2ccccc2N(C(=O)CN2CCCCC2CN2CCOCC2)c2ccccc21 (centres undefined),194 to 195 °C
11,CCCCCc1c(C)nc(C)c(CO)c1-c1ccccc1,99 to 100 °C
12,COc1cc([N+](=O)[O-])ccc1F,69 to 71 °C
13,O=C(O)C1CC(C(=O)O)C(C(=O)O)C1C(=O)O (centres undefined),186 °C
14,CC(O)(c1ccc(C#N)cc1)c1cncs1 (centres undefined),162 to 164 °C
15,COC(=O)c1c(C(F)(F)F)noc1NS(=O)(=O)c1ccccc1,100 to 101 °C
16,CCn1cc(C(=O)NCc2ccc(Cl)cc2)c(=O)c2cc(C#CCO)sc21,217 to 219 °C
17,Cc1nsc2cc(N)c([N+](=O)[O-])cc12,189 to 191 °C
18,Cc1cccc(-c2[nH]c(C(C)C)nc2-c2cccc(-c3ccc(S(=O)(=O)N(C)C)cc3)c2)n1,93 to 96 °C
19,CCOC(=O)c1nn(-c2ccc(Cl)cc2Cl)c(-c2ccc(Cl)cc2)c1C#N,112 °C
20,C=CCOc1nc(Cl)nc2nc[nH]c12,208 to 209 °C
21,CON(C)C(=O)c1ccc(Cl)c(Cl)c1,39.5 to 43.2 °C
22,Cc1c(-c2ccccc2)sc(N2C(=O)c3ccccc3C2=O)c1C(=O)c1ccc(Cl)cc1,223 to 225 °C
23,C(=C1\CN2CCC1CC2)/N1c2ccccc2Sc2ccccc21,149 to 153 °C
24,CCOC(=O)C=C1CN=C(c2ccccc2F)c2cc(Cl)ccc2N1,109 to 111 °C
